Tests used:
Assay in all cases: relative viability (nuclei count vs DMSO), 5 days (fraction); higher = more cells survive
Neratinib + Foretinib = compound: CCOc1cc2ncc(C#N)c(Nc3ccc(OCc4ccccn4)c(Cl)c3)c2cc1NC(=O)/C=C/CN(C)C [Neratinib] + COc1cc2c(Oc3ccc(NC(=O)C4(C(=O)Nc5ccc(F)cc5)CC4)cc3F)ccnc2cc1OCCCN1CCOCC1 [Foretinib] (partner 0.25 µM)
Summary of the method: (§1)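 Relative viability divides the nuclei count in treated wells by that in vehicle wells. Lung cancer cell lines were seeded in 1536-well plates, dosed by pin tool the next day, and fixed and stained after 5 days in one step with final 0.05% Triton X-100, 1% formaldehyde and 1 ug/ml Hoechst. Dosing was a single drug or a fixed anchor-drug dose plus five library-drug doses (not always all listed) in √10 steps, and values are medians of duplicate plates imaged at 4×.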

Neratinib + Vorinostat = compound: CCOc1cc2ncc(C#N)c(Nc3ccc(OCc4ccccn4)c(Cl)c3)c2cc1NC(=O)/C=C/CN(C)C [Neratinib] + O=C(CCCCCCC(=O)Nc1ccccc1)NO [Vorinostat] (partner 1 µM)
Summary of the method: as §1

Neratinib + AZD7762 = compound: CCOc1cc2ncc(C#N)c(Nc3ccc(OCc4ccccn4)c(Cl)c3)c2cc1NC(=O)/C=C/CN(C)C [Neratinib] + NC(=O)Nc1cc(-c2cccc(F)c2)sc1C(=O)N[C@H]1CCCNC1 [AZD7762] (partner 0.2 µM)
Summary of the method: as §1

Neratinib + Pictilisib = compound: CCOc1cc2ncc(C#N)c(Nc3ccc(OCc4ccccn4)c(Cl)c3)c2cc1NC(=O)/C=C/CN(C)C [Neratinib] + CS(=O)(=O)N1CCN(Cc2cc3nc(-c4cccc5[nH]ncc45)nc(N4CCOCC4)c3s2)CC1 [Pictilisib] (partner 1 µM)
Summary of the method: as §1

Cell Line	relative viability (Neratinib + Foretinib; first compound 0.01 µM)	relative viability (Neratinib + Foretinib; first compound 0.1 µM)	relative viability (Neratinib + Foretinib; first compound 0.3162 µM)	relative viability (Neratinib + Foretinib; first compound 1 µM)	relative viability (Neratinib + Vorinostat; first compound 0.01 µM)	relative viability (Neratinib + Vorinostat; first compound 0.03162 µM)	relative viability (Neratinib + Vorinostat; first compound 0.1 µM)	relative viability (Neratinib + Vorinostat; first compound 0.3162 µM)	relative viability (Neratinib + Vorinostat; first compound 1 µM)	relative viability (Neratinib + AZD7762; first compound 0.01 µM)	relative viability (Neratinib + AZD7762; first compound 0.03162 µM)	relative viability (Neratinib + AZD7762; first compound 0.1 µM)	relative viability (Neratinib + AZD7762; first compound 0.3162 µM)	relative viability (Neratinib + AZD7762; first compound 1 µM)	relative viability (Neratinib + Pictilisib; first compound 0.01 µM)	relative viability (Neratinib + Pictilisib; first compound 0.03162 µM)	relative viability (Neratinib + Pictilisib; first compound 0.1 µM)	relative viability (Neratinib + Pictilisib; first compound 0.3162 µM)	relative viability (Neratinib + Pictilisib; first compound 1 µM)	relative viability (Neratinib + Foretinib; first compound 0.03162 µM)
LU99A	0.959	0.73	0.462	0.376	0.428	0.465	0.469	0.529	0.43	0.426	0.403	0.314	0.374	0.263	0.31	0.311	0.285	0.263	0.207	–
NCI-H1355	–	0.874	0.842	0.366	0.724	0.649	0.591	0.602	0.447	0.904	0.754	0.642	0.706	0.538	0.485	0.482	0.395	0.365	0.232	–
NCI-H650	1.1	0.952	0.873	0.884	0.406	0.399	0.451	0.403	0.367	1.02	1.09	–	1	1.3	0.974	0.898	0.729	–	0.644	1.03
PC-14	1.04	0.862	0.929	0.335	0.773	0.754	0.557	0.359	0.0625	0.366	0.41	0.36	0.242	0.134	0.927	0.805	0.66	0.121	0.101	0.973
NCI-H838	1.12	0.885	–	0.656	–	0.794	0.705	0.735	0.619	0.944	1.08	0.968	–	0.78	0.466	0.54	0.473	0.375	0.25	1.08
SK-LU-1	0.917	0.816	0.46	0.302	0.805	0.878	0.728	0.651	0.421	–	–	–	–	–	0.647	0.65	0.514	0.505	0.34	0.938
COR-L23	1.09	0.946	0.966	0.837	0.466	0.468	0.486	0.449	0.235	–	–	–	–	–	–	–	0.739	0.644	0.257	1.03
NCI-H1650	1.1	0.744	0.657	0.602	0.381	0.615	0.49	0.419	0.447	–	–	–	–	–	0.565	0.682	0.513	0.531	0.517	1.29
NCI-H661	1.05	0.836	0.489	0.364	0.866	0.729	0.583	0.657	0.445	–	–	–	–	–	0.507	0.399	0.303	0.24	0.272	1.06
NCI-H1648	–	–	–	–	0.328	0.427	0.283	0.304	0.368	0.676	–	0.491	0.552	0.444	–	–	–	–	–	–
SK-MES-1	0.97	0.735	0.832	0.375	1.12	1.08	1.05	0.925	0.29	–	–	–	–	–	0.347	0.338	0.238	0.207	0.177	0.985
NCI-H2023	0.797	0.415	0.454	0.257	0.937	0.532	0.495	0.602	0.375	–	–	–	–	–	0.209	0.233	0.233	0.228	0.177	0.803
COR-L 105	0.995	0.54	0.324	0.284	0.781	0.817	0.5	0.505	0.33	–	–	–	–	–	0.455	0.412	0.377	0.31	0.312	1.28
SW 1573	1.15	0.941	0.97	0.722	0.797	0.831	0.612	0.623	0.38	–	–	–	–	–	0.523	0.586	0.399	0.508	0.249	0.894
NCI-H2009	1.2	1.17	1.25	1.05	0.739	0.772	0.777	0.754	0.644	–	–	–	–	–	0.862	0.892	0.727	0.638	0.432	1.29
NCI-H1563	0.858	0.885	0.844	0.75	–	–	–	–	–	–	–	–	–	–	0.608	0.636	0.664	0.617	0.602	0.942
EBC-1	0.102	0.111	0.113	0.0982	–	–	–	–	–	–	–	–	–	–	0.398	0.408	0.378	0.319	0.274	0.0886
UMC-11	0.989	1.02	0.954	–	0.434	0.417	0.296	0.332	0.283	–	–	–	–	–	0.776	1.06	0.566	0.746	0.701	1.13
NCI-H2228	–	0.715	0.646	0.204	0.769	0.871	0.623	0.7	0.318	–	–	–	–	–	0.365	0.346	0.301	0.442	0.199	0.95
Calu-6	0.929	0.736	0.85	0.513	–	–	–	–	–	–	–	–	–	–	0.924	1.01	0.891	0.788	0.405	0.891
HCC-44	–	–	–	–	1.11	1.09	1.12	1.1	1.09	0.961	0.995	0.947	1.05	1.12	0.852	0.561	0.655	0.642	0.643	–
